Test results: the NIST ThermoML archive (doi:10.1021/je050402s)

Assay: xn = mol fraction of the nth substance listed
Settings: 100.5 kPa, Liquid; for viscosity: Capillary tube (Ostwald / Ubbelohde) method

COC(=O)c1ccccc1 [methyl benzoate] + CCO
Settings	mass density, 288.15 K [kg/m3]	mass density, 298.15 K [kg/m3]	mass density, 308.15 K [kg/m3]	mass density, 318.15 K [kg/m3]	viscosity, 288.15 K [mPa·s]	viscosity, 298.15 K [mPa·s]	viscosity, 308.15 K [mPa·s]	viscosity, 318.15 K [mPa·s]
x1 = 0.05	825.66	816.86	807.97	798.9	1.324	1.092	0.911	0.766
x1 = 0.1	853.88	844.92	835.86	826.58	1.323	1.094	0.915	0.77
x1 = 0.15	879.1	869.96	860.69	851.28	1.338	1.107	0.924	0.782
x1 = 0.2	901.63	892.4	883.02	873.48	1.359	1.122	0.94	0.797
x1 = 0.25	922.04	912.73	903.27	893.66	1.383	1.144	0.958	0.814
x1 = 0.3	940.62	931.27	921.76	912.06	1.417	1.171	0.981	0.834
x1 = 0.35	957.58	948.19	938.63	928.88	1.455	1.199	1.006	0.855
x1 = 0.4	973.15	963.7	954.11	944.3	1.496	1.232	1.031	0.877
x1 = 0.45	987.48	978.01	968.36	958.52	1.541	1.266	1.061	0.902
x1 = 0.5	1000.69	991.23	981.53	971.68	1.589	1.303	1.091	0.928
x1 = 0.55	1012.94	1003.42	993.75	983.88	1.64	1.341	1.123	0.954
x1 = 0.6	1024.33	1014.81	1005.11	995.26	1.692	1.384	1.158	0.982
x1 = 0.65	1034.94	1025.44	1015.73	1005.87	1.746	1.429	1.193	1.014
x1 = 0.7	1044.83	1035.36	1025.64	1015.8	1.807	1.475	1.231	1.047
x1 = 0.75	1054.13	1044.67	1034.95	1025.13	1.87	1.526	1.275	1.083
x1 = 0.8	1062.88	1053.41	1043.73	1033.93	1.942	1.581	1.318	1.122
x1 = 0.85	1071.11	1061.7	1052.04	1042.24	2.03	1.645	1.369	1.166
x1 = 0.9	1078.93	1069.53	1059.87	1050.1	2.118	1.712	1.421	1.208
x1 = 0.95	1086.31	1076.94	1067.3	1057.55	2.207	1.784	1.48	1.255
x1 = 1	1093.23	1083.92	1074.34	1064.62	2.297	1.851	1.531	1.297
